Results reported in article PMC7550916 (Computational and Structural Biotechnology Journal, 2020).

How the values were obtained:
[1] = tested on: human A2A^Δ40R (pHALO-tagged); format: binding
[2] = tested on: non-transfected HEK-293T cells; assay: ERK1/2 phosphorylation in non-transfected cells; format: cell-based, human; settings: non-transfected HEK-293T cells (Fig. S1A)
A2AR = A2AR (Homo sapiens, UniProt P29274); assay: cAMP determination; settings: against all agonists (Fig. S8)
Chain of A2AR (P29274 whole entry): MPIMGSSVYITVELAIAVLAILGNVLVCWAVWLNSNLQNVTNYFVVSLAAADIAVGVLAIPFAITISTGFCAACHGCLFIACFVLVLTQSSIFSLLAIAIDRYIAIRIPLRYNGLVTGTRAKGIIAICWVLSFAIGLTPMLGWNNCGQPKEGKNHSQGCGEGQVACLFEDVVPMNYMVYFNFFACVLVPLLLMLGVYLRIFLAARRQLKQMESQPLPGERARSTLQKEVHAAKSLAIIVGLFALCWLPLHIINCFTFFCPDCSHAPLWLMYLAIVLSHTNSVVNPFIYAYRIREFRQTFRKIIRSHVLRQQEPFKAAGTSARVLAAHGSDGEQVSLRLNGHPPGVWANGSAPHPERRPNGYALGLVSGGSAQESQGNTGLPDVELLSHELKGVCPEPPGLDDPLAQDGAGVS

Row | ΔΔG (binding free energy difference between wild type and truncated receptor) [1] [kJ/mol] | effect of antagonist on agonist-induced cAMP production (A2AR) | Structure (SMILES) | ERK1/2 phosphorylation vs basal [2]
1 | 2.1 | – | CCNC(=O)[C@H]1O[C@@H](n2cnc3c(N)nc(NCCc4ccc(CCC(=O)O)cc4)nc32)[C@H](O)[C@@H]1O [CGS-21680] | not significantly different to the basal condition
2 | – | blockade of cAMP production | Nc1nc2c(cnn2CCc2ccccc2)c2nc(-c3ccco3)nn12 [SCH-58261] | –
